This passage reports IC50 results from patent publication US10538512B2, “Aminoacylindazole immunomodulators for treatment of autoimmune diseases” (The Rockefeller University, priority 2016, dated 2020).

Molecules are shown by their SMILES.

The target of the assay is T1, Human FXIIa (Homo sapiens, UniProt P00748).
T1 construct: active coagulation factor XII (FXIIa); purchased Enzyme Research Labs
T1 sequence (P00748 373-615 limits assumed): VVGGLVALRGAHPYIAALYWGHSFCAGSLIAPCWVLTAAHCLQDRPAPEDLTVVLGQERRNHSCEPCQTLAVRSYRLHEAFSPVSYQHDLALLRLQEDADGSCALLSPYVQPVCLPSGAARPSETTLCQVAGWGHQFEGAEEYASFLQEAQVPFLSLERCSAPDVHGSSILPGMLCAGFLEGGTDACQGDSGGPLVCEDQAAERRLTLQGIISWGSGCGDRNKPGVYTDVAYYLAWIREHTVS
T1 sequence (P00748 20-372 partner limits assumed): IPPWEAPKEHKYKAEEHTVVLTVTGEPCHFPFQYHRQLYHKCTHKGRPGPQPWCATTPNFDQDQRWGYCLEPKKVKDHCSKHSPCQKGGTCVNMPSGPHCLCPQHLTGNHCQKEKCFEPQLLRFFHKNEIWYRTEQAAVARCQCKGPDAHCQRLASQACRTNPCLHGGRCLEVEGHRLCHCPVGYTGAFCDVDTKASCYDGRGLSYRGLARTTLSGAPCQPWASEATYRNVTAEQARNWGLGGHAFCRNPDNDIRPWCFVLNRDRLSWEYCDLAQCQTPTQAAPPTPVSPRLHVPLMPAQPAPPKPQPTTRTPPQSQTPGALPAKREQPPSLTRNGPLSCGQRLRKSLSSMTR
Put plainly: Factor XIIa (FXIIa) inhibitory activity, chromogenic substrate assay. As to conditions: Human FXIIa 12.5 nM, Pefachrome XIIa 400 μM, 10 min preincubation. The format is biochemical. The protocol:
Factor XIIa (FXIIa) Inhibitory Activity:
In a 96-well clear bottom plate, 80 μl of assay buffer was added to each well. Assay buffer consists of 0.5× Hank's Balanced Salt Solution (Invitrogen), buffered with 25 mM HEPES pH 7.4 (Invitrogen) and 0.5× Tris-buffered saline with Tween-20 0.05% (Santa Cruz Biotechnology). Test compounds were first dissolved in DMSO (Sigma) and then 4 μl were added to test wells containing assay buffer. Serial dilutions using an automated multi-channel pipette were used to generate a concentration range of approximately 1-100 μM. […] 80 μl of this enzyme solution was added to the assay wells. The enzyme/compound mixtures were incubated for 10 minutes at room temperature. Chromogenic substrate (Pefachrome XIIa; Enzyme Research Labs) was added to assay wells at a final concentration of 400 μM. The assay plate was spun for 1 minute at 1500 g and then read at 37° C. in a SpectraMax M2 plate reader (λ=405 nm). Activity was quantified as the rate of change in absorbance, which corresponds to the rate of substrate cleavage.
A word on the IC50: it is the concentration that inhibits the measured activity by half. A high value points to weaker potency in that assay. With `Nc1nn(C(=O)[C@@H]2CCNc3c(Cl)cccc32)c2c1CC[C@@H](O)C2` (single isomer, unassigned) [Example 212, ((6R*)-3-amino-6-hydroxy-4,5,6,7-tetrahydroindazol-1-yl)((4R*)-8-chloro-1,2,3,4-tetrahydroquinolin-4-yl)methanone], the IC50 is greater than 100000 nM. The compound `Cc1cccc2c1NCC[C@H]2C(=O)n1nc2c(c1N)C[C@H](O)CC2` (single isomer, unassigned) [Example 217, ((5R*)-3-amino-5-hydroxy-4,5,6,7-tetrahydro-2H-indazol-2-yl)((4R*)-8-methyl-1,2,3,4-tetrahydroquinolin-4-yl)methanone] displayed an IC50 of 35000 nM. As to `Nc1c2c(nn1C(=O)[C@@H]1CCNc3ccc(F)cc31)CC[C@@H](N)C2` (stereo in doubt) [Example 188, ((5R*)-3,5-diamino-4,5,6,7-tetrahydroindazol-2-yl)((4R*)-6-fluoro-1,2,3,4-tetrahydroquinolin-4-yl)methanone], the IC50 is greater than 80000 nM. To `Nc1c2c(nn1C(=O)[C@H]1CCNc3ccc(F)cc31)CC[C@@H](N)C2` (stereo in doubt) [Example 189, ((5R*)-3,5-diamino-4,5,6,7-tetrahydroindazol-2-yl)((4S*)-6-fluoro-1,2,3,4-tetrahydroquinolin-4-yl)methanone] belongs 3000 nM; to `Nc1c2c(nn1C(=O)[C@@H]1CCNc3ccc(F)cc31)CC[C@H](N)C2` (stereo in doubt) [Example 193, ((5S*)-3,5-diamino-4,5,6,7-tetrahydroindazol-2-yl)((4R*)-6-fluoro-1,2,3,4-tetrahydroquinolin-4-yl)methanone], 4000 nM; to `Nc1c2c(nn1C(=O)c1cccc3ccccc13)CCCC2` [Example 39, (3-amino-4,5,6,7-tetrahydroindazol-2-yl)(naphthalen-1-yl)methanone], 4000 nM. `Cc1[nH]c2ccccc2c1C(=O)n1nc2c(c1N)CCCC2` [Example 44, (3-amino-4,5,6,7-tetrahydroindazol-2-yl)(2-methyl-1H-indol-3-yl)methanone] had an IC50 of 11000 nM. Against the preceding compound, the IC50 is about 2.8-fold higher.

Take `Nc1c2c(nn1C(=O)c1cccc3[nH]ncc13)CCCC2` [Example 47, (3-amino-4,5,6,7-tetrahydroindazol-2-yl)(1H-indazol-4-yl)methanone]: the IC50 was found to be 30 nM. To `Cc1cc2c(C(=O)n3nc4c(c3N)CCCC4)cccc2n1C(C)C` [Example 49, (3-amino-4,5,6,7-tetrahydroindazol-2-yl)(1-isopropyl-2-methyl-1H-indol-4-yl)methanone] belongs 20 nM. `Cc1cc2c(C(=O)n3nc4c(c3N)CCCC4)cccc2s1` [Example 57, (3-Amino-4,5,6,7-tetrahydro-indazol-2-yl)-(2-methyl-benzo[b]thiophen-4-yl)-methanone]: it took 60 nM to reach half-maximal inhibition (IC50). As for `CCc1cc2c([nH]1)CCCC2C(=O)n1nc2c(c1N)CCCC2` (stereo not drawn) [Example 82, (3-amino-4,5,6,7-tetrahydroindazol-2-yl)(2-ethyl-4,5,6,7-tetrahydro-1H-indol-4-yl)methanone], the IC50 is 40 nM. Then `CN1CCC(C(=O)n2nc3c(c2N)CCCC3)c2cccnc21` (stereo not drawn) [Example 87, (3-amino-4,5,6,7-tetrahydroindazol-2-yl)(1-methyl-1,2,3,4-tetrahydro-1,8-naphthyridin-4-yl)methanone], with 5000 nM; and `Cn1cc2c(n1)CCCC2C(=O)n1nc2c(c1N)CCCC2` (stereo not drawn) [Example 88, (3-amino-4,5,6,7-tetrahydroindazol-2-yl)(2-methyl-4,5,6,7-tetrahydro-2H-indazol-4-yl)methanone], with 850 nM; and `Nc1nn(C(=O)C2CCCc3[nH]ccc32)c2c1CCCC2` (stereo not drawn) [Example 93, (3-amino-4,5,6,7-tetrahydroindazol-1-yl)(4,5,6,7-tetrahydro-1H-indol-4-yl)methanone], with greater than 100000 nM.

The compound `Cc1ccc2c(c1)NCCC2C(=O)n1nc2c(c1N)CCCC2` (stereo not drawn) [Example 101, (3-amino-4,5,6,7-tetrahydroindazol-2-yl)(7-methyl-1,2,3,4-tetrahydroquinolin-4-yl)methanone] had an IC50 of 900 nM. With `Nc1c2c(nn1C(=O)C1CCNc3cc(Cl)ccc31)CCCC2` (stereo not drawn) [Example 103, (3-amino-4,5,6,7-tetrahydroindazol-2-yl)(7-chloro-1,2,3,4-tetrahydroquinolin-4-yl)methanone], the IC50 turned out to be 700 nM. Compound `Nc1nn(C(=O)C2CCNc3cc(Cl)ccc32)c2c1CCCC2` (stereo not drawn) [Example 104, (3-amino-4,5,6,7-tetrahydroindazol-1-yl)(7-chloro-1,2,3,4-tetrahydroquinolin-4-yl)methanone] had an IC50 greater than 50000 nM.

On to `Nc1c2c(nn1C(=O)C1CCNc3cc(C(F)(F)F)ccc31)CCCC2` (stereo not drawn) [Example 105, (3-amino-4,5,6,7-tetrahydro-2H-indazol-2-yl)(7-(trifluoromethyl)-1,2,3,4-tetrahydroquinolin-4-yl)methanone], for which the IC50 came to 1800 nM. For `COc1ccc2c(c1)NCCC2C(=O)n1nc2c(c1N)CCCC2` (stereo not drawn) [Example 110, (3-amino-4,5,6,7-tetrahydroindazol-2-yl)(7-methoxy-1,2,3,4-tetrahydroquinolin-4-yl)methanone], it took 250 nM to reach half-maximal inhibition (IC50). On to `COc1ccc2c(c1)NCCC2C(=O)n1nc(N)c2c1CCCC2` (stereo not drawn) [Example 111, (3-amino-4,5,6,7-tetrahydroindazol-1-yl)(7-methoxy-1,2,3,4-tetrahydroquinolin-4-yl)methanone], for which the IC50 was greater than 100000 nM.

Compound `Cn1c(Cl)cc2c1CCCC2C(=O)n1nc2c(c1N)CCCC2` (stereo not drawn) [Example 112, (3-amino-4,5,6,7-tetrahydroindazol-2-yl)(2-chloro-1-methyl-4,5,6,7-tetrahydro-1H-indol-4-yl)methanone] returned an IC50 of 180 nM.

Compound `CCc1cc2c(C(=O)n3nc4c(c3N)CCCC4)ccnc2[nH]1` [Example 113, (3-amino-4,5,6,7-tetrahydro-2H-indazol-2-yl)(2-ethyl-1H-pyrrolo[2,3-b]pyridin-4-yl)methanone] returned an IC50 of 50 nM. In turn, `CCc1cc2c(C(=O)n3nc(N)c4c3CCCC4)ccnc2[nH]1` [Example 114, (3-amino-4,5,6,7-tetrahydro-1H-indazol-1-yl)(2-ethyl-1H-pyrrolo[2,3-b]pyridin-4-yl)methanone] came in with an IC50 greater than 100000 nM. In turn, `Nc1c2c(nn1C(=O)C1CCNc3cc(F)ccc31)CCCC2` (stereo not drawn) [Example 115, (3-amino-4,5,6,7-tetrahydroindazol-2-yl)(7-fluoro-1,2,3,4-tetrahydroquinolin-4-yl)methanone] came in with an IC50 of 400 nM. That is a sub-micromolar value. `Cc1cc2c(C(=O)n3nc4c(c3N)CC(OCc3ccccc3)CC4)cccc2[nH]1` (stereo not drawn) [Example 117, (3-amino-5-(benzyloxy)-4,5,6,7-tetrahydroindazol-2-yl)(2-methyl-1H-indol-4-yl)methanone] registered an IC50 of 30 nM.

`Cc1cc2c(C(=O)n3nc(N)c4c3CCC(OCc3ccccc3)C4)cccc2[nH]1` (stereo not drawn) [Example 118, (3-amino-5-(benzyloxy)-4,5,6,7-tetrahydroindazol-1-yl)(2-methyl-1H-indol-4-yl)methanone] yielded an IC50 of 20000 nM.

As for `COC1CCc2nn(C(=O)c3cccc4[nH]c(C)cc34)c(N)c2C1` (stereo not drawn) [Example 119, (3-amino-5-methoxy-4,5,6,7-tetrahydro-2H-indazol-2-yl)(2-methyl-1H-indol-4-yl)methanone], the IC50 was 50 nM. This IC50 lies about 400-fold lower than the previous one.
